{"source": "patent US9833424B2", "about": "“Application of fluoxetine to treatment of depigmentation diseases” (SHANDONG RUNZE PHARMACEUTICALS CO., LTD., priority 2011, dated 2017)", "key": {"[1]": {"tested_on": "B16F10 cells", "experiment": "MTT assay for measuring cell proliferation rate of B16F10 cells", "type": "cell-based, mouse", "conditions": "0.1 to 10 μM"}, "[2]": {"tested_on": "tyrosinase activity of B16F10 cells", "experiment": "L-DOPA oxidation assay for measuring tyrosinase activity of B16F10 cells", "type": "cell-based, mouse"}, "[3]": {"tested_on": "B16F10 cells", "experiment": "NaOH lysis method for determination of melanin content of B16F10 cells", "type": "cell-based, mouse"}, "[4]": {"tested_on": "B16F10 cells", "experiment": "Western blotting of melanin synthesis proteins (MITF, TYR, TRP-1, TRP-2) in B16F10 cells", "type": "cell-based, mouse", "conditions": "72 h, vs blank control"}, "[5]": {"tested_on": "normal human melanocytes (NHMCs)", "experiment": "Morphology of normal human melanocytes (NHMCs), phase-contrast microscopy", "type": "cell-based", "conditions": "0.1-10 μM, 5 days, with increases in dosage"}, "[6]": {"tested_on": "normal human primary melanocytes", "experiment": "MTT assay for measuring cell proliferation rate of human primary melanocytes", "type": "cell-based", "conditions": "72 hours"}, "[7]": {"tested_on": "tyrosinase activity of human primary melanocytes", "experiment": "L-DOPA oxidation assay for tyrosinase activity of human primary melanocytes", "type": "cell-based"}, "[8]": {"tested_on": "human primary melanocytes", "experiment": "NaOH lysis method for measuring melanin content of human primary melanocytes", "type": "cell-based"}, "[9]": {"tested_on": "human primary melanocytes", "experiment": "Western blotting of melanin synthesis proteins (MITF, TYR, TRP-1, TRP-2) in human primary melanocytes", "type": "cell-based", "conditions": "72 h, vs blank control"}, "[10]": {"tested_on": "C57BL/6 mice", "experiment": "Skin color on the back of hair-removed synchronized C57BL/6 mice after gavage", "type": "in vivo, mouse", "conditions": "20 mg/kg gavage once a day, 12th day, vs solvent control group"}, "[11]": {"tested_on": "C57BL/6 mice", "experiment": "Western blotting of melanin synthesis proteins in skin hair follicles of C57BL/6 mice", "type": "in vivo, mouse", "conditions": "20 mg/kg gavage, 12th day"}, "[12]": {"tested_on": "C57BL/6 mice", "experiment": "Immunohistochemistry of melanin synthesis proteins in hair follicle melanocytes of C57BL/6 mice", "type": "in vivo, mouse", "conditions": "20 mg/kg gavage, 12th day, immunohistochemical staining"}, "[13]": {"tested_on": "zebrafish embryos", "experiment": "Melanogenesis in PTU-induced zebrafish depigmentation model", "type": "in vivo", "conditions": "even at 1.0 μM, hour 12 to hour 60 after fertilization; especially in skin and eyes", "experimental": "The zebrafish depigmentation model were obtained by treating zebrafish embryos with 1-phenyl 2-thiourea (PTU). […] Both embryos were treated in 0.2 mM (“M” stands for “mole/liter” throughout this disclosure) PTU to inhibit melanogenesis from after fertilization until the time their pictures were taken, i.e., at hour 35 and hour 60, respectively, i.e., the PTU(35) group and the PTU(60) group. […] Data expressed as mean±SD (n=40)."}, "[14]": {"tested_on": "TYR activity in zebrafish", "experiment": "TYR activity in PTU(35) group zebrafish", "type": "in vivo", "experimental": "The zebrafish depigmentation model were obtained by treating zebrafish embryos with 1-phenyl 2-thiourea (PTU). […] All data were expression for at least three experiments. ***P<0.001 vs control; ^#P<0.05, ^##P<0.01, ^###P<0.001 vs PTU (35 h) group. Data expressed as mean±SD (n=40)."}, "[15]": {"tested_on": "in vitro cultured normal human skin tissue", "experiment": "Melanin content of in vitro cultured normal human skin tissue (NaOH cracking process)", "type": "cell-based", "conditions": "1 μM, 48 hours"}, "[16]": {"tested_on": "tyrosinase activity in normal human skin tissue", "experiment": "Tyrosinase activity of in vitro cultured normal human skin tissue (L-DOPA)", "type": "cell-based", "conditions": "1-100 μM, 48 hours"}, "[17]": {"conditions": "in vivo; cited from earlier work"}, "[18]": {"tested_on": "A375 cells", "experiment": "Cell migration (wound healing test) and morphology, A375 cells", "conditions": "48 hours, 0.1-10 μM"}, "[19]": {"tested_on": "B16F10 cells", "experiment": "Cell migration (wound healing test) and morphology, B16F10 cells", "conditions": "48 hours, 0.1-10 μM"}}}
{"smiles": "CNCCC(Oc1ccc(C(F)(F)F)cc1)c1ccccc1", "note": "(centres unmarked) [fluoxetine, N-methyl-γ-[4-(trifluoromethyl)phenoxy] phenylpropylamine]", "values": [{"measurement": "toxicity and carcinogenesis on B16F10 melanoma cells", "setting": "[1]", "value": "low toxicity and low carcinogenesis"}, {"measurement": "effect on the growth of B16F10 cells (cell proliferation rate)", "setting": "[1]; 72 hours, vs blank control, P>0.05", "value": "no significant effect"}, {"measurement": "tyrosinase activity of B16F10 cells", "setting": "[2]; 72 hours, vs blank control, P<0.05 at 1 μM and 5 μM, P<0.01 at 10 μM", "value": "significantly promoted"}, {"measurement": "enzyme activity increase rate compared with positive drug psoralen", "setting": "[2]; B16F10 cells, fluoxetine in the highest concentration", "value": "close to that of the positive drug psoralen"}, {"measurement": "melanin content of B16F10 cells", "setting": "[3]; 1 to 10 μM, 72 hours, vs blank control, P<0.05 at 1 μM, P<0.01 at 5 μM and 10 μM", "value": "significantly increased"}, {"measurement": "melanin content increase rate compared with positive drug psoralen", "setting": "[3]; B16F10 cells", "value": "exceeded that of the positive drug psoralen"}, {"measurement": "expression of protein MITF", "setting": "[4]", "value": "significantly improve"}, {"measurement": "expression of protein tyrosinase (TYR)", "setting": "[4]", "value": "significantly improve"}, {"measurement": "expression of tyrosinase-related protein 1 (TRP-1)", "setting": "[4]", "value": "significantly improve"}, {"measurement": "protein level of tyrosinase-related protein 2 (TRP-2)", "setting": "[4]", "value": "not significantly affected"}, {"measurement": "dendritic morphology of NHMCs (number and length of dendrites)", "setting": "[5]", "value": "the number as well as the length of the primary dendritic melanocytes increase significantly"}, {"measurement": "toxicity on human primary melanocytes", "setting": "[6]", "value": "relatively low toxicity"}, {"measurement": "effect on the growth of normal human primary melanocytes", "setting": "[6]; vs blank control, P>0.05", "value": "no significant effect"}, {"measurement": "tyrosinase activity of human primary melanocytes", "setting": "[7]; 72 hours, vs blank control, P<0.01", "value": "significantly promoted"}, {"measurement": "enzyme activity increase rate compared with positive drug psoralen", "setting": "[7]; human primary melanocytes, fluoxetine at 5 μM and 10 μM", "value": "exceeded that of the positive drug psoralen"}, {"measurement": "melanin content of human primary melanocytes", "setting": "[8]; 72 hours, vs control group, P<0.01", "value": "significantly increased"}, {"measurement": "melanin content increase rate compared with positive drug psoralen", "setting": "[8]; human primary melanocytes", "value": "close to or exceeded that of the positive drug psoralen"}, {"measurement": "expression of protein MITF", "setting": "[9]", "value": "significantly improve"}, {"measurement": "expression of protein tyrosinase (TYR)", "setting": "[9]", "value": "significantly improve"}, {"measurement": "expression of tyrosinase-related protein 1 (TRP-1)", "setting": "[9]", "value": "significantly improve"}, {"measurement": "protein level of tyrosinase-related protein 2 (TRP-2)", "setting": "[9]", "value": "not significantly affected"}, {"measurement": "skin color in the hair-removed area of the skin", "setting": "[10]", "value": "significantly darkened"}, {"measurement": "expression of protein MITF in skin hair follicles", "setting": "[11]", "value": "significantly improve"}, {"measurement": "expression of tyrosinase (TYR) in skin hair follicles", "setting": "[11]", "value": "significantly improve"}, {"measurement": "expression of tyrosinase-related protein 1 (TRP-1) in skin hair follicles", "setting": "[11]", "value": "significantly improve"}, {"measurement": "expression of tyrosinase-related protein 2 (TRP-2) in skin hair follicles", "setting": "[11]", "value": "significantly improve"}, {"measurement": "expression of tyrosinase (TYR) in hair follicle melanocytes", "setting": "[12]", "value": "significantly improve"}, {"measurement": "expression of tyrosinase-related protein 1 (TRP-1) in hair follicle melanocytes", "setting": "[12]", "value": "significantly improve"}, {"measurement": "expression of tyrosinase-related protein 2 (TRP-2) in hair follicle melanocytes", "setting": "[12]", "value": "significantly improve"}, {"measurement": "melanogenesis in the PTU model zebrafish", "setting": "[13]", "value": "increased melanogenesis"}, {"measurement": "TYR activity, dosage dependence", "setting": "[14]; PTU(35) group zebrafish, 10.0 μM compared with 1.0 μM", "value": "higher TRY activity than Flx(1.0 μM)"}, {"measurement": "TYR activity in the PTU(35) group zebrafish", "setting": "[14]; exposure for 48 hours (hour 12 to hour 60 after fertilization)", "value": "enhanced the TYR activity"}, {"measurement": "melanogenesis (melanin content) in skin tissue", "setting": "[15]", "value": "stimulates melanogenesis"}, {"measurement": "activity of tyrosinase in skin tissue", "setting": "[16]", "value": "did not exhibit any change"}, {"measurement": "drug excreted in the stool", "setting": "[17]", "value": 15, "unit": "%"}, {"measurement": "drug excreted in the urine", "setting": "[17]", "value": "about 80%"}, {"measurement": "cell mobility", "setting": "[18]", "value": "may increase the mobility"}, {"measurement": "cell mobility", "setting": "[19]", "value": "may increase the mobility"}]}
